Legend:
Rat Liver [1] = details: chronic rat study, liver; ref ToxRefDB; cited from earlier work
Rat Liver [2] = details: chronic rat study, liver; ref ToxRefDB; cited from earlier work; remark: listed apart in the source
HMGCS2 = assay: CLZD_HMGCS2: Change in expression of HMGCS2 (primary human hepatocytes); type: cell-based; details: 24 hr
Experimental: This is a collection of multiplexed gene expression assays focused on Phase I and II xenobiotic metabolizing enzymes and transporters. Human primary cell cultures were treated with chemicals at 5 concentrations (0.004-40 [drawing 42] M) for 6, 24 and 48 hr. Concentration- and time-response profiles of chemicals were measured by the expression of key nuclear receptor target genes, activities of CYP1A enzymes (EROD), and cell morphology. Fourteen gene targets were monitored by quantitative nuclease protection assay including: six representative cytochrome P-450 genes, four hepatic transporters, three Phase II conjugating enzymes, and one endogenous metabolism gene involved in cholesterol synthesis. The target genes associated with nuclear receptor pathways are as follows: [drawing 43] and [drawing 44] with [drawing 45]; [drawing 46] , [drawing 47] , [drawing 48] , [drawing 49] , [drawing 50] and [drawing 51] with [drawing 52]; [drawing 53] , [drawing 54] , [drawing 55] and [drawing 56] with [drawing 57]; [drawing 58] with [drawing 59]; and [drawing 60] with [drawing 61] . Assays were run in primary human hepatocyte cultures by CellzDirect Invitrogen Inc. (Durham, NC), in collaboration with EPA.
Multiplexed Gene Expression in Human Primary Hepatocytes: This is a collection of multiplexed gene expression assays focused on Phase I and II metabolic enzymes and transporters. […] Fourteen gene targets were monitored by quantitative nuclease protection assay: six representative cytochrome P450 genes, four hepatic transporters, three Phase II conjugating enzymes, and one endogenous metabolism gene involved in cholesterol synthesis. Cells were exposed at 5 concentrations (0.004-40 µM) for 6, 24 or 48 hr. Gene targets are sentinels for five nuclear receptor signaling pathways: AhR, CAR, PXR, FXR, and PPARα. All gene are associated with nuclear receptor pathways: CYP1A1 and CYP1A2 with AHR; ABCB1, ABCG2, CYP2B6, CYP2C9, CYP2C19 and UGT1A1 with CAR; CYP3A4, GSTA2, SLCO1B1 and SULT2A1 with PXR; HMGCS2 with PPARA; and ABCB11 with FXR. […] Detailed description of the methods, data and analysis methods for this dataset will be presented in a separate publication.

Rat Liver [3] = details: chronic rat study, liver; ref ToxRefDB; cited from earlier work; remark: listed apart in the source
[4] = target: T1, AHR (aryl hydrocarbon receptor) (Homo sapiens, UniProt P35869); assay: ATG_Ahr_CIS: Factorial reporter gene assay (multiplexed transcription reporter, HepG2); type: cell-based; details: HepG2
T1 construct: endogenous in cells; host or cells: HepG2
T1 sequence (P35869 11-848): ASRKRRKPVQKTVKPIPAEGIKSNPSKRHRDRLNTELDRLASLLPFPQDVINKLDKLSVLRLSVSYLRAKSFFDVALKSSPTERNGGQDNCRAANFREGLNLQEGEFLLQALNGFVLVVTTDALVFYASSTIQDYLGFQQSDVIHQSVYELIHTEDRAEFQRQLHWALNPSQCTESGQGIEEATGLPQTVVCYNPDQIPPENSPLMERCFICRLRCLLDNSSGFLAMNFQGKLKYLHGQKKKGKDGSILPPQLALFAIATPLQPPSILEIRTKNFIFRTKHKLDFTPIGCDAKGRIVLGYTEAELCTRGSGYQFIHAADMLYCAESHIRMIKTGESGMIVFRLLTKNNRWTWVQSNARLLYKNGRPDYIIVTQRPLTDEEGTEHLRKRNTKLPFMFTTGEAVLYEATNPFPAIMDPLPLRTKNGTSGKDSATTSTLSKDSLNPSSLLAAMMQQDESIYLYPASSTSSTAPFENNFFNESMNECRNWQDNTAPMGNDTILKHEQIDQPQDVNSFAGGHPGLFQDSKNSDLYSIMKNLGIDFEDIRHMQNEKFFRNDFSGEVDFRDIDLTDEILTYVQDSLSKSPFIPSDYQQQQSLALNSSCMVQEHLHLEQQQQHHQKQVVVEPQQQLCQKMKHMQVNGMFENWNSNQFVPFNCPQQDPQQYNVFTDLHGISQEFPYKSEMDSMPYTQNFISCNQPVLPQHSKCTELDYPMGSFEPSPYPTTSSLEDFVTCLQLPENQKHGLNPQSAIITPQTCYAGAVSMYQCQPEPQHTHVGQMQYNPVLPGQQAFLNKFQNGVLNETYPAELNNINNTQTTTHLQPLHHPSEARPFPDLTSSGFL
Experimental: (§1) A multiple reporter transcription unit (MRTU) library consisting of 48 transcription factor binding sites was transfected into the HepG2 human liver hepatoma cell line. In addition to the cis-acting reporter genes (CIS), a modification of the approach was used to generate a trans-system (TRANS) with a mammalian one-hybrid assay consisting of an additional 25 MRTU library reporting the activity of nuclear receptor super-family members. […] These assays were performed by Attagene Inc. (Morrisville NC) under contract to EPA.
(§2) In addition to the cis-acting reporter genes (CIS), a modification of the approach was used to generate a trans-system (TRANS) with a mammalian one-hybrid assay consisting of an additional 25 MRTU library reporting the activity of nuclear receptor super-family members. […] Chemicals were then tested in the CIS and TRANS assays at seven concentrations starting at the MTC and followed by three-fold serial dilutions. These assays were performed by Attagene Inc. (Morrisville NC) under contract to EPA. Detailed description of the methods, data and analysis methods for this dataset will be presented in a separate publication.

LXRb (NR1H2) = target: T2, LXRb (NR1H2) (Homo sapiens, UniProt P55055); assay: ATG_LXRb_TRANS: Factorial reporter gene assay (HepG2); type: cell-based; details: HepG2
T2 construct: expressed in transfected cells; host or cells: HepG2
T2 sequence (P55055 1-460): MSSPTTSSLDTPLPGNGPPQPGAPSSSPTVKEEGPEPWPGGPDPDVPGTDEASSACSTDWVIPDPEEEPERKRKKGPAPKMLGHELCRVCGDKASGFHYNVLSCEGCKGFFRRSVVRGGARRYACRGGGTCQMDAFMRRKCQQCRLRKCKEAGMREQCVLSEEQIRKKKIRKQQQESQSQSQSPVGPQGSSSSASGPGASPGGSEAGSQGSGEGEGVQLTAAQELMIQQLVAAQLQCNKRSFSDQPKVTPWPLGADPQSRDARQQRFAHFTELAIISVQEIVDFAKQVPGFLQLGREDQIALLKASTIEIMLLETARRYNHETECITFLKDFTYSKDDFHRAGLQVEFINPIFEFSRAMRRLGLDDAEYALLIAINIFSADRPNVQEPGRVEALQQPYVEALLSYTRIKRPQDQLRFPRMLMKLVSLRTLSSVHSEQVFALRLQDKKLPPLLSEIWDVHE
Experimental: as §1, §2

[5] = target: T3, PPARG (peroxisome proliferator-activated receptor gamma) (Homo sapiens, UniProt P37231); assay: ATG_PPARg_TRANS: Factorial reporter gene assay (HepG2); type: cell-based; details: HepG2
T3 construct: expressed in transfected cells; host or cells: HepG2
T3 sequence (P37231 1-505): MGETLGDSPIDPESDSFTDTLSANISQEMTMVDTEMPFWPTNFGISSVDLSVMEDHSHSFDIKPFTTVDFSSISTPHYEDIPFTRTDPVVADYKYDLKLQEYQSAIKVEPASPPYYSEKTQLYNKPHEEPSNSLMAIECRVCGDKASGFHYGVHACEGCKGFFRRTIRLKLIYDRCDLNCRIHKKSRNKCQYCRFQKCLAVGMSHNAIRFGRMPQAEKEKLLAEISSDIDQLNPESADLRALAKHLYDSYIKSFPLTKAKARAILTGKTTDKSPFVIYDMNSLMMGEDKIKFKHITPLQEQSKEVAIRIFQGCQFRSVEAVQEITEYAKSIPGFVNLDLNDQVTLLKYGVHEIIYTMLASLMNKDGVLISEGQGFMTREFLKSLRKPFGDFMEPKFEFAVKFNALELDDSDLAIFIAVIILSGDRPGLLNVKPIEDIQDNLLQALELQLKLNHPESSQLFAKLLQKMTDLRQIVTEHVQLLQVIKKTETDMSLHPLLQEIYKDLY
In short: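 Compounds at seven concentrations (top at MTC, threefold serial) were applied to transfected HepG2 hepatoma cells, with PXRE scored by cis-element reporters and ERRg, FXR and PPARg scored by trans one-hybrid nuclear receptor reporters.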

LXRa (NR1H3) = target: T4, LXRa (NR1H3) (Homo sapiens, UniProt Q13133); assay: ATG_LXRa_TRANS: Factorial reporter gene assay (HepG2); type: cell-based; details: HepG2
T4 construct: expressed in transfected cells; host or cells: HepG2
T4 sequence (Q13133 1-447): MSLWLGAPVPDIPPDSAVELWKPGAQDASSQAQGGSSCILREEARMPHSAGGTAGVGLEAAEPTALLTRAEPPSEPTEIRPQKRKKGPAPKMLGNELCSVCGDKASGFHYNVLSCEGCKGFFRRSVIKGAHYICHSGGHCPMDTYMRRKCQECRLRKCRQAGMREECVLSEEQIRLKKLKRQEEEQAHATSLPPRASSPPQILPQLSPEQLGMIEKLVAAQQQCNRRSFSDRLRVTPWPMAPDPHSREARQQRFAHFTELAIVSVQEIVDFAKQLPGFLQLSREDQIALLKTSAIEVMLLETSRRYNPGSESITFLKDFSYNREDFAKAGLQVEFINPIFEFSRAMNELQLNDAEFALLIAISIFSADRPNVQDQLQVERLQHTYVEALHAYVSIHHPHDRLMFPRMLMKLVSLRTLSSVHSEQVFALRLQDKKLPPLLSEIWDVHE
Experimental: as §1, §2

SMILES	CHR_Rat_Liver_1_AnyLesion (Rat Liver [1])	CHR_Rat_Liver_2_PreneoplasticLesion (Rat Liver [2])	CLZD_HMGCS2_24 (HMGCS2)	CHR_Rat_Liver_3_NeoplasticLesion (Rat Liver [3])	ATG_Ahr_CIS [4]	ATG_LXRb_TRANS (LXRb (NR1H2))	ATG_PPARg_TRANS [5]	ATG_LXRa_TRANS (LXRa (NR1H3))
C[N+]1(C)CCCCC1.[Cl-] [row 193]	0	0	5.889	0	–	–	–	–
COC(=O)c1ccccc1S(=O)(=O)NC(=O)Nc1nc(C)nc(OC)n1 [row 210]	0	0	–	0	4.337	4.215	–	–
CN=C=S [row 205]	–	–	–	–	–	–	4.215	4.495

— publication PMC3038857, “Using Nuclear Receptor Activity to Stratify Hepatocarcinogens” (PLoS ONE, 2011)
